What was measured:
[1] = target: T1, AgTG3 (Anopheles gambiae, UniProt D2K8K8); assay: AgTG3 plugin cross-linking assay (SDS-PAGE, FITC-CAD); assay type: biochemical; conditions: 100 μM inhibitor, 5 mM CaCl2, intensity of high MW bands
Experimental: Recombinant AgTG3 was pre-incubated with 100 μM inhibitors overnight at room temperature. AgTG3, with and without pretreatment with inhibitors (1 μg), was added to plugin-C (20 μg) and 0.5 mM FITC-cadaverine (FITC-CAD) in 25 mM HEPES, pH 7.5, 10 mM CaCl2, 1 mM DTT. The reaction was incubated at room temperature for 2 h and quenched by heat denaturation of the proteins in the presence of Laemmli buffer. The extent of cross-linking was analysed by sodium dodecyl sulphate-polyacrylamide gel electrophoresis (SDS-PAGE). The gel was scanned using Alpha Imager 2200 software.
Additional assays were performed to examine whether compounds 1 and 3 would inhibit the cross-linking of plugin-C by AgTG3 in solution, with FITC-CAD for fluorescent detection of plugin-C. Results were assessed by SDS/PAGE and UV illumination to detect FITC-CAD (Figure 7). […] In the presence of enzyme, substrate and calcium a ladder of fluorescent bands of increasing molecular weight (MW) is observed (lane 4), corresponding to cross-linked oligomers of plugin also labeled by FITC-CAD. […] However, the levels of AgTG3 in solution assays are higher in the cross-linking assay than the primary screen. The levels of plugin-C were also higher, which competes with slow-binding irreversible inhibitors such as 1 and 3 for the active site of AgTG3.
Figure 7 Inhibition of plugin cross-linking by DHI inhibitors. Fluorescent image of SDS-PAGE for FITC-cadaverine labeling and cross-linking of plugin by AgTG3. Lanes (1–4): (1) AgTG3, (2) Plugin-C, (3) AgTG3 and plugin-C, (4) AgTG3, plugin-C, and 5 mM CaCl2. Lanes (5–8): AgTG3, plugin-C, 5 mM CaCl2 and (5) 10 mM EDTA, (6) 50 mM IA, (7) 100 μM 1, (8) 100 μM 3. (below) Coomassie stain indicating relative levels of monomeric Plugin-C.

[2] = target: T1, AgTG3; assay: Covalent modification of AgTG3 by ESI-MS and tandem MS/MS; assay type: binding
Experimental: Recombinant AgTG3 (20 μM) was dialyzed against HEPES buffer containing 100 mM NaCl, 10 mM CaCl2, and 5% glycerol. Inhibitors were added to a final concentration of 100 μM and incubated overnight. Samples were subsequently injected on a Waters ACQUITY Ultraperformance liquid chromatography (UPLC) system coupled to an ACQUITY UPLC Photodiode Array (PDA) λ detector. Electrospray ionization (ESI) mass spectrograms were collected in the positive ion mode and subsequently transformed for molecular weight determination using MASSLYNX software (Waters).
Samples prepared for ESI-MS (50 μL) were pretreated with 2 μL of 10 g/l trypsin (Sigma) for 1 h at 37°C. The reaction was stopped by formic acid, and the sample was submitted to the W.M. Keck Biotechnology Resource Laboratory (Yale University) for tandem MS/MS proteomics analysis. Results were further analysed using the online MassMatrix server.
DHI inhibitors form a thioether bond with the TG active site cysteine, a modification that should be detectable by mass spectrometry. […] AgTG3 was treated with 100 μM 3 overnight and the intact protein subsequently analyzed by ESI-MS (Figure 8A). The parent mass for unmodified AgTG3 was detected at m/z = 84173 Da. […] The expected m/z shift for reaction with 3 is +470, however, […] than what was observed. To confirm the mass shift corresponds to modification of the active site cysteine with 3, treated AgTG3 was subjected to tryptic digestion and LC-MS/MS analysis. […] No other modified cysteines were detected in the protein. Taken together, the secondary in vitro assays of cross-linking and covalent modification confirm 1–3 as active site inhibitors of AgTG3.

[3] = test system: Anopheles gambiae G3 strain mosquitoes; assay: Anopheles gambiae laboratory mating assay (mating plug transfer); assay type: in vivo
Experimental: Anopheles gambiae G3 strain mosquitoes from a laboratory colony were reared using standard conditions (26–28°C, 65–80% relative humidity, 12 h/12 h Light/Darkness (L:D) photoperiod). Mosquitoes were sexed as pupae and adult males and females were allowed to emerge in separate cages to ensure their status as virgins. Three-day-old virgin males were injected with 138 nl of 100 μM of inhibitor diluted in 5% DMSO, or with 138 nl of a 5% DMSO solution as a control. Mating experiments were performed four days after eclosion as described previously and couples were captured in copula. RNAi experiments were performed as previously described. Mated females were dissected within two hours of mating to determine the presence of the mating plug in their atrium.
Finally, A. gambiae laboratory mating assays were performed to test if the DHI inhibitors identified in the pilot screen could inhibit male transfer of the mating plug. Compound 3, 100 μM in DMSO, was administered to male mosquitoes by intrathoracic injection. Injected males were mated with virgin females, and their ability to transfer a mating plug to females was assessed (Table 1). […] Thus, injection of males with AgTG3 inhibitor 3 is at least as effective as injection of dsRNA to inhibit mating plug formation in A. gambiae males.

[4] = target: T2, human caspase-1 (Homo sapiens, UniProt P29466); assay: Cysteine protease inhibition assay, caspase-1 (Ac-YVAD-pNA); assay type: biochemical; conditions: 3 at 100 μM, compared to a DMSO control, chromogenic assay
T2 construct: purchased Abcam
T2 sequence (P29466 120-297 limits assumed): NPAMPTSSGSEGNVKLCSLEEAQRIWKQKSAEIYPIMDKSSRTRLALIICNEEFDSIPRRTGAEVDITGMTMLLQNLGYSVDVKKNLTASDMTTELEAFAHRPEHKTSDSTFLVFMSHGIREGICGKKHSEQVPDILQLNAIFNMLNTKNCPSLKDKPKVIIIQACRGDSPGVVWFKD
T2 sequence (P29466 317-404 limits assumed): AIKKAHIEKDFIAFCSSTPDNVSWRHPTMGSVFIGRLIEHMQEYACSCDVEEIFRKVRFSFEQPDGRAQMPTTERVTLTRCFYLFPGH
Experimental: The activity of caspase-1 was determined by use of chromogenic substrate Ac-YVAD-pNA (Enzo Life Sciences, NY, USA). The assay was performed by adding 45 μL of 1 Unit caspase-1 (Abcam, MA, USA) and 5 μL of Ac-YVAD-pNA (final concentration, 5 μM) to 50 μL assay buffer (50 mM HEPES pH 7.4, 10 mM DTT, 1 mM EDTA, 0.1% CHAPS, 20% glycerol). Substrate cleavage after 1 h incubation at 37°C was measured by […] absorbance at 400 nm in a benchtop UV/Vis spectrophotometer (UV1800, Shimadzu, Kyoto, Japan).
Transglutaminases and cysteine proteases have a similar catalytic mechanism involving an active site cysteine and formation of a thioacyl intermediate. […] To test this hypothesis, the inhibition of two cysteine proteases, human caspase-1 and recombinant tobacco etch virus (TEV) protease by 3 at 100 μM were tested using a chromogenic and SDS-PAGE assay, respectively (Figure 9). […] Neither human caspase-1 nor TEV are endogenous proteins in A. gambiae, which may well contain other endogenous targets of 1–3, not least the two other transglutaminases in the A. gambiae genome.

T1 sequence (D2K8K8 entry or part of it): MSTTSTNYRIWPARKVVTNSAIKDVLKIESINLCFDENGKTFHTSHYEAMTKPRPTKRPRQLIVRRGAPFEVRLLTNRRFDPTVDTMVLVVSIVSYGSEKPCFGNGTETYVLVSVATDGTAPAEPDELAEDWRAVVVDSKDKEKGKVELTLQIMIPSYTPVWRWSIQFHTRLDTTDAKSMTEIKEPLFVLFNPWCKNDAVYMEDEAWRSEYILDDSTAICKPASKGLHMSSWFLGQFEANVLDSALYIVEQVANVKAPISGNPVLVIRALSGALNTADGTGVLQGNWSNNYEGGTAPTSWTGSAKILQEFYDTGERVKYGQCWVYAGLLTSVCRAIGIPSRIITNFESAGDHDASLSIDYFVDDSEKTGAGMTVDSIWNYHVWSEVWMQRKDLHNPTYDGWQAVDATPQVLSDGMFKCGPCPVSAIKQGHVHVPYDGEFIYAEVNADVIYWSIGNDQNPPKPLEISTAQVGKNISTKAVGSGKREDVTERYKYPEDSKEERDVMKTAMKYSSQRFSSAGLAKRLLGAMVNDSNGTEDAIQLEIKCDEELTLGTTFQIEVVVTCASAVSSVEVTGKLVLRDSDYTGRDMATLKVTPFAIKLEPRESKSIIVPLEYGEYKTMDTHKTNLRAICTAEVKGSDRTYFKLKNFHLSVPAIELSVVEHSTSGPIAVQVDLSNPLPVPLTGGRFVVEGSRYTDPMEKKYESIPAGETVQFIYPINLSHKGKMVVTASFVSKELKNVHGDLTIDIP

O=C(N[C@@H](Cc1c[nH]c2ccccc12)C(=O)NC[C@@H]1CC(Br)=NO1)OCc1cnc2ccccc2c1
Inhibition of plugin-C cross-linking by AgTG3 [1]: to a lesser extent
Mass shift of intact AgTG3 after treatment ([2]; 100 μM overnight, ESI-MS): +465 m/z
Mass shift of tryptic peptide containing AgTG3 active site cysteine ([2]; 100 μM overnight, tryptic digestion, LC-MS/MS): +469 amu
Site of covalent modification of AgTG3 ([2]; y ion fragmentation, no other modified cysteines detected): specific modification of Cys 323
Reduction in transfer of the mating plug ([3]; intrathoracic injection of males): 15%
Mating plug transferred (number of females) ([3]; males injected intrathoracically (3: 138 nl of 100 μM; dsRNA as ref 39), N 75 (3), 77 (dsAgTG3)): 64
No plug transferred (number of females) ([3]; males injected intrathoracically (3: 138 nl of 100 μM; dsRNA as ref 39), N 75 (3), 77 (dsAgTG3), three independent experiments): 11
Females that failed to receive a mating plug ([3]; males injected intrathoracically, DMSO control 3%, dsLacZ control 2%): 15%
Ill effect of injection on males ([3]; males injected with 3): no obvious ill effect from wounding
Inhibition of caspase-1 [4]: no inhibition of the protease

— PMC4113009, “Dihydroisoxazole inhibitors of Anopheles gambiae seminal transglutaminase AgTG3” (Malaria Journal, 2014)
